# US20180044628A1, “Method for Biofilm Control and Treatment” (priority 2015, published 2018)
# Experiments:
# Type in all cases: cell-based, Bacillus subtilis NCIB 3610
# nasA promoter = test: PnasA-YFP reporter of glutamine limitation in biofilms, with constitutive Phyperspank-CFP as control
# Description: FIG. 2a. […] Glutamine limitation was monitored using YFP expressed from the nasA promoter, which is activated upon glutamine limitation^21. FIG. 2b. […] FIG. 2c. Growth area before and after addition of 1 mM glutamine to an oscillating colony. FIG. 2d. […] FIG. 2e. […] Scale bar represents 100 μm. FIG. 2f. Growth area of an oscillating colony before and after addition of 30 mM glutamate (shading). FIG. 2g.
# To determine whether biofilms experience glutamine limitation, expression of nasA, one of several genes activated in response to a lack of glutamine^21, was measured.
# [1] = system: Bacillus subtilis biofilms; test: Biofilm growth oscillations in a microfluidic device, followed by time-lapse phase contrast microscopy and image differencing
# Description: Growth conditions. The biofilms were grown using MSgg medium^16. It contains 5 mM potassium phosphate buffer (pH 7.0), 100 mM MOPS buffer (pH 7.0, adjusted using NaOH), 2 mM MgCl2, 700 μM CaCl2, 50 μM MnCl2, 100 μM FeCl3, 1 μM ZnCl2, 2 μM thiamine HCl, 0.5% (v/v) glycerol and 0.5% (w/v) monosodium glutamate. The MSgg medium was made from stock solutions on the day of the experiment, and the stock solution for glutamate was made each week.
# Microfluidics. The CellASIC ONIX Microfluidic Platform and the Y04D microfluidic plate (EMD Millipore) were used. It provides unconventionally large chambers, allowing the formation of colonies containing millions of cells, yet still leaves room for media flow. Media flow in the microfluidic chamber was driven by a pneumatic pump from the CellASIC ONIX Microfluidic Platform, and the pressure from the pump was kept stable during the course of the oscillation. In most of the experiments, a pump pressure of 1 psi was used with only one media inlet open (there are 6 media inlets in the Y04D plate), which corresponds to a flow speed of ˜16 μm/s in the growth chamber.
# On the day before the experiment, cells from −80° C. glycerol stock were streaked onto LB agar plate and incubated at 37° C. for overnight. The next day morning, a single colony was picked from the plate and inoculated into 3 ml of LB broth in a 50 ml conical tube, and then incubated in 37° C. shaker. After 2.5 hours of incubation, the cell culture was centrifuged at 2100 rcf for 1 min, and then the cell pellet was re-suspended in MSgg and then immediately loaded into microfluidics. After the loading, cells in the microfluidic chamber were incubated at 37° C. for 90 min, and then the temperature was kept at 30° C. for the rest of the experiment.
# Time-Lapse Microscopy. The growth of the biofilms was recorded using phase contrast microscopy. The microscopes used were Olympus IX81 and IX83, and DeltaVision PersonalDV. To image entire biofilms, 10× lens objectives were used in most of the experiments. Images were taken every 10 min Whenever fluorescence images were recorded, the minimum exposure time was used that still provided a good signal-to-noise ratio.
# (§1) Biofilm growth rate. ImageJ (National Institutes of Health) and MATLAB (MathWorks) were used for image analysis. In house software was also developed to perform colony detection and quantification of colony expansion. Multiple methods of colony detection were used to ensure the accuracy of the analysis. To detect regions of expansion in a biofilm, image differencing was performed on snapshots of the biofilm from time-lapse microscopy videos. Specifically, the difference between two consecutive phase contrast images (taken 10 min apart) was calculated by finding the absolute difference between each pixel in each image. […] The intensity values from the stack correlate with the expansion inside the biofilm. The growth area was determined by converting difference images to binary images and then measuring the area of the colony growth region (white pixels). To measure cell replication time, the length and division of individual cells were tracked in the biofilm periphery (FIG. 8b).
# [2] = system: Bacillus subtilis biofilms; test: Cell death (Sytox Green) and cell growth (difference images) within biofilms under external attack
# Description: Scale bar represents 50 μm. […] Error bars represent standard deviations.
# Scale bar represents 100 μm.
# as §1
# [3] = 1 mM glutamine added to growth media
smiles,measurement,setting,value
NC(=O)CC[C@H](N)C(=O)O [glutamine],expression of constitutive promoter (Phyperspank-CFP + 1 mM IPTG),nasA promoter; [3],did not affect expression of a constitutive promoter
same,nasA promoter expression (PnasA-YFP),nasA promoter; [3],reduced nasA promoter expression
same,effect on periodic halting of biofilm growth (oscillations),"[1]; 1 mM glutamine added to MSgg medium, oscillating colony",eliminated periodic halting of biofilm growth
O=C(N[C@H](CO)[C@H](O)c1ccc([N+](=O)[O-])cc1)C(Cl)Cl [chloramphenicol],growth of interior cells after attack,"[2]; wild type biofilm, chloramphenicol 5 μg/ml (FIG. 12)",growth of interior cells was observed
OCC(O)CO [glycerol],effect on biofilm oscillations,[1]; glycerol increased by 5 times of normal MSgg levels,does not
OO [hydrogen peroxide],killing of biofilm,"[2]; GDH overexpression strain (Phyp-RocG, induced with 1 mM IPTG) exposed to hydrogen peroxide",more effective global killing throughout the biofilm
same,cell death (Sytox marker) in biofilm,"[2]; wild type biofilm, H2O2 2% w/w (FIG. 4b) or 0.15% v/v (FIG. 12)",increased cell death was observed predominantly in the biofilm periphery
same,growth of interior cells after attack,"[2]; wild type biofilm, H2O2 2% w/w (FIG. 4c) or 0.15% v/v (FIG. 12)",led to growth of interior cells
N [ammonium],expression from constitutive reporter (Phyperspank-CFP + 1 mM IPTG),nasA promoter; 1 mM external ammonium added,does not affect expression from a constitutive reporter
same,expression from the PnasA-YFP reporter,nasA promoter; 1 mM external ammonium added,represses expression from the PnasA-YFP reporter
same,colony growth after removal of external ammonium,[1]; additional ammonium (13 mM) suddenly removed from the media,growth in the biofilm periphery halted
same,effect on periodic halting in biofilm expansion,[1]; media supplemented with 1 mM ammonium,eliminated the periodic halting in biofilm expansion
"N[C@@H](CCC(=O)O)C(=O)[O-].[Na+] [glutamate, monosodium glutamate]",effect on biofilm oscillations,"[1]; 30 mM glutamate added to MSgg medium, oscillating colony",not quenched
same,effect on biofilm oscillations,[1]; glutamate increased by 5 times of normal MSgg levels,leads to quenching of the oscillation
